Data published in ChEMBL document CHEMBL5661955, “ASAP - In vitro cytotoxicity” (2024).

Columns and labels:
[1] = Functional CPE-based assay to measure dose dependent changes in cell viability from drug treatment in Vero E6 miRFP670 cells. Cells are treated with antiviral candidates that have been serially diluted. Cytotoxicity is reported via analysis of MTS assays in uninfected cells. The assay has been performed by KU Leuven.; assay type: toxicity, Vero C1008; settings: chlorocebus sabaeus, Vero E6 miRFP670 cells
[2] = Functional assay to measure dose dependent changes in cell viability from drug treatment in Vero E6 miRFP670 cells (cotreated with P-gp inhibitor, CP100356) that are infected with Dengue virus type 2 New Guinea C. […] Cytotoxicity is reported via via analysis of DAPI count using high-content imager. The assay has been performed by KU Leuven.; assay type: toxicity, cell-based, Vero C1008; settings: chlorocebus sabaeus, with CP100356 (P-gp inhibitor, concentration not stated); p-gp concentration 500 nM
[3] = Functional metabolic assay to measure dose dependent changes in cell viability from drug treatment in Vero E6/TMPRSS2 cells (cotreated with P-gp inhibitor, Elacridar). […] Cytotoxicity is reported via measuring absorbance and analysis of MTT/MTS assays in uninfected cells. The assay has been performed by Icahn School of Medicine at Mount Sinai.; assay type: toxicity, cell-based, VeroE6/TMPRSS2; settings: chlorocebus sabaeus, p-gp concentration 2 uM
[4] = Functional CPE-based assay to measure dose dependent changes in cell viability from drug treatment in Vero E6 miRFP670 cells (cotreated with P-gp inhibitor, CP100356). Cells are treated with antiviral candidates that have been serially diluted. Cytotoxicity is reported via analysis of MTS assays in uninfected cells. The assay has been performed by KU Leuven.; assay type: toxicity, Vero C1008; settings: chlorocebus sabaeus, Vero E6 miRFP670 cells, with CP100356 (P-gp inhibitor, concentration not stated); p-gp concentration 500 nM
[5] = Vero E6/TMPRSS2 cells, with Elacridar (P-gp inhibitor, concentration not stated)

Row | Compound | CC50 [1] [µM] | CC50 [2] [µM] | other results
1 | O=C(Nc1ccc2c(c1)CNCC2)c1cc(Cl)cc2[nH]ncc12 | > 50 |  | 
2 | O=C(NC[C@H]1CCCO1)[C@H](Nc1ccc2c(c1)CNC2)c1cc(Cl)cc2[nH]ncc12 |  | > 50 | CC50 [3, 5]: > 50 µM; CC10 ([3]; veroe6/tmprss2): > 50 µM; CC50 [4]: > 50 µM
3 | CC(C)(C)c1cc(Br)cc(C(=O)Nc2ccc3c(c2)CNC3)c1 | 5.77 |  | 
4 | Clc1ccc2[nH]cc(Cc3ccc(-c4nn[nH]n4)cc3)c2c1 | > 50 | 19.3 | CC50 [3, 5]: > 50 µM; CC10 ([3]; veroe6/tmprss2): > 50 µM
5 | CN1Cc2ccc(NC(=O)c3cc(Cl)cc4[nH]ncc34)cc2C1 | > 50 |  | 
6 | O=C(Nc1ccc2c(c1)CNC2)c1cc(Br)cc2ccccc12 | 11.4 |  | 
7 | C=C1C[C@H](c2cc(Cl)cc(NC(=O)OCc3ccccc3)c2)[C@@H](c2cccc(-c3nn[nH]n3)c2)C1 | 5.72 | 7.56 | 
8 | O=C(Nc1ccc2c(c1)CNC2)c1cc(Cl)cc2c1CCC2 | 18.4 |  | 
9 | O=C(Nc1cc(Cl)cc(C(=O)NCc2ccc(-c3nnn[nH]3)cc2)c1)OCc1ccccc1 | > 50 | 3.21 | CC50 [3, 5]: > 50 µM; CC10 ([3]; veroe6/tmprss2): > 50 µM
10 | C=CC[C@H](Nc1ccc(-c2nn[nH]n2)cc1)c1cc(Cl)cc(NC(=O)OCc2ccccc2)c1 | 46.2 | 10.7 | 
11 | CCCNC(=O)[C@H](Nc1cccc(-c2nn[nH]n2)c1)c1cc(Cl)cc(NC(=O)OCc2ccccc2)c1 | > 50 | > 50 | 
12 | CC(C)c1cc(Br)cc(C(=O)Nc2ccc3c(c2)CNC3)c1 | 11.5 |  | 
13 | O=C(Nc1ccc2c(c1)CNC2)c1cc(Br)cc2c1OCO2 | 23 |  | 
14 | O=C(Nc1ccc(C2CNC2)cc1)c1cc(Cl)cc2[nH]ncc12 | > 50 | > 50 | 
15 | Cn1ncc2c(C(=O)Nc3ccc4c(c3)CNC4)cc(Br)cc21 | > 50 | > 50 | 
16 | NCc1cc(/C=C/C(=O)O)cc(NC(=O)c2cc(Cl)cc(NC(=O)OCc3ccccc3)c2)c1 | > 50 | 15.7 | 
17 | C=CC[C@H](Nc1cc(Cl)cc(NC(=O)OCc2ccccc2)c1)c1ccc(-c2nn[nH]n2)cc1 | 14.6 | 7.62 | 
18 | NCc1cccc(NC(=O)c2cc(Cl)cc3c2cnn3CC2CC2)c1 | 20.7 | 24.1 | 
19 | NCc1cccc(NC(=O)c2cc(Cl)cc(-n3cccc3)c2)c1 | 25.7 | > 50 | CC50 [3, 5]: > 50 µM; CC10 ([3]; veroe6/tmprss2): > 50 µM
20 | CC(C)Oc1ccc(S(=O)(=O)Nc2ccc(Cl)cc2C(=O)O)cc1 | > 50 |  | 

Row | Compound | CC50 [1] [µM] | CC50 [2] [µM] | other results
21 | O=C(Nc1cc(Cl)cc(C(=O)Nc2cccc(C3CCNCC3)c2)c1)OCc1ccccc1 | 5.29 | 11.8 | CC50 [3, 5]: > 10 µM; CC50 ([3]; veroe6/tmprss2): 13.5 µM
22 | N#C[C@H](Nc1cncc(-c2nn[nH]n2)c1)c1cc(Cl)cc(NC(=O)OCc2ccccc2)c1 | > 50 |  | 
23 | N[C@H]1Cc2ccc(NC(=O)c3cc(Cl)cc(NC(=O)OCc4ccccc4)c3)cc2C1 | 2.82 | 4.15 | 
24 | O=C(NS(=O)(=O)C1CC1)c1cc(Cl)ccc1NS(=O)(=O)c1ccc(Oc2ccccc2Cl)cc1 | > 50 | > 50 | 
25 | O=C(Nc1cc(Cl)cc([C@H]2[C@H](CO)[C@@H]2c2cccc(-c3nn[nH]n3)c2)c1)OCc1ccccc1 | > 50 |  | 
26 | N#C[C@H](Nc1ccc2c(c1)CNC2)c1cc(Cl)cc2[nH]ncc12 | > 50 |  | CC50 [3, 5]: > 50 µM; CC10 ([3]; veroe6/tmprss2): > 50 µM
27 | O=C(Nc1cccc(-c2nnn[nH]2)c1)c1cc(Cl)cc2[nH]ncc12 | > 50 |  | 
28 | O=C(Nc1cc(Cl)cc(C(=O)Nc2cccc([C@H]3C[C@H]3C(=O)O)c2)c1)OCc1ccccc1 | > 50 |  | 
29 | O=C(O)COc1cccc(NC(=O)c2cc(Cl)cc(NC(=O)OCc3ccccc3)c2)c1 | > 50 |  | CC50 [3, 5]: > 50 µM; CC10 ([3]; veroe6/tmprss2): > 50 µM
30 | CCOc1cccc(-c2ccc(S(=O)(=O)Nc3ccc(Cl)cc3C(=O)O)cc2C)c1 | 36.1 | 21.9 | CC50 [3, 5]: > 50 µM; CC10 ([3]; veroe6/tmprss2): 0.027 µM
31 | COc1ccc(S(=O)(=O)Nc2cc(F)c(Cl)cc2C(=O)NCC(C)C)cc1 | 4.25 |  | 
32 | NCc1cccc(NC(=O)[C@H](NC(=O)OCc2ccccc2)c2ccc(Br)c(Cl)c2)c1 | 10 | 13.4 | 
33 | O=C(Nc1cc(Cl)cc(-c2ccc3[nH]nc(C(=O)O)c3c2)c1)OCc1ccccc1 | > 50 | 13.6 | 
34 | O=C(NCC1CC1)c1cc(Cl)ccc1NS(=O)(=O)c1ccc(Oc2ccccc2Cl)cc1 | 5.46 |  | 
35 | NCc1cccc(NC(=O)c2cc(Cl)cc(C(N)=O)c2)c1 | > 50 | > 50 | 
36 | NCc1cc(NC(=O)c2cc(Cl)cc(NC(=O)OCc3ccccc3)c2)cc([C@@H]2C[C@H]2C(=O)O)c1 | 9.99 | 21.8 | 
37 | COc1cccc(-c2ccc([C@@H](NC(=O)OCc3ccccc3)C(=O)Nc3cccc(CN)c3)cc2)c1 | 6.76 | 23.1 | 
38 | CCOCCNC(=O)c1cc(Cl)ccc1NS(=O)(=O)c1ccc(Oc2ccccc2Cl)cc1 | 8.81 |  | 
39 | CNC(=O)[C@H](Nc1cc(CN)cc(C(=O)O)c1)c1cc(Cl)cc(C2CC2)c1 | > 50 | > 50 | 
40 | O=C(Nc1cc(Cl)cc([C@H]2C[C@@H]2c2cccc(C3CCNCC3)c2)c1)OCc1ccccc1 | 1.23 | 3.44 | 

Row | Compound | CC50 [1] [µM] | CC50 [2] [µM] | other results
41 | COC(=O)c1cc(NC(=O)c2cc(Cl)cc(NC(=O)OCc3ccccc3)c2)cc(-c2nnn[nH]2)c1 | 35.2 |  | CC50 [3, 5]: > 50 µM; CC10 ([3]; veroe6/tmprss2): > 50 µM
42 | CCNC(=O)Nc1cc(Cl)cc(C(=O)Nc2ccc3c(c2)CNCCO3)c1 | > 50 | 35.3 | 
43 | NCc1cccc(NC(=O)c2cc(Cl)cc(C3CC3)c2)c1 | 46.6 |  | 
44 | C[C@@]1(c2cccc(CN)c2)C[C@H]1c1cc(Cl)cc(NC(=O)OCc2ccccc2)c1 | 2.61 | 6.46 | 
45 | COc1cc(-c2cc(Cl)cc(NC(=O)OCc3ccccc3)c2)c(OC)cc1CC(=O)O | 49.8 |  | 
46 | CCNC(=O)Nc1cc(Cl)cc(C(=O)Nc2cccc(CN)c2)c1 | > 50 | > 50 | 
47 | OCC#C[C@H](Nc1ccc2c(c1)CNC2)c1cc(Cl)cc2[nH]ncc12 | > 50 | > 50 | 
48 | NCc1cccc(NC(=O)c2cc(Cl)cc3[nH]ncc23)c1 | > 50 |  | 
49 | O=C(NC1CCCCC1)c1cc(Cl)ccc1NS(=O)(=O)c1ccc(Oc2ccccc2Cl)cc1 | 3.46 |  | 
50 | O=C(Nc1cccc(-c2nnn[nH]2)c1)c1cc(Cl)cc(C2CC2)c1 | > 50 |  | 
51 | O=C(O)c1cc(Cl)c(F)cc1S(=O)(=O)Nc1ccc(Oc2ccccc2Cl)cc1 | > 50 | > 50 | 
52 | CC(=O)NCc1cccc(NC(=O)c2cc(Cl)cc(NC(=O)OCc3ccccc3)c2)c1 | 38 |  | 
53 | NCc1cccc(CCc2cc(Cl)cc(NC(=O)OCc3ccccc3)c2)c1 | 5.46 | 11.9 | CC50 [3, 5]: 29.7 µM; CC10 ([3]; veroe6/tmprss2): 2.058 µM
54 | NCc1cccc(NC(=O)[C@@H](NC(=O)OCc2ccccc2)c2ccc(-c3cc4cccnc4s3)cc2)c1 | 34.7 | > 50 | 
55 | O=C(Nc1cc(Cl)cc(-c2cccc3c(C(=O)O)cccc23)c1)OCc1ccccc1 | < 0.391 |  | 
56 | NCc1cccc(NC(=O)[C@H](NC(=O)OCc2ccccc2)C2CCC(c3ccccc3)CC2)c1 (stereo partly specified) | 4.58 | 11.5 | 
57 | NCc1cc(Cl)cc(C(=O)Nc2ccc3c(c2)CNC3)c1 | > 50 |  | 
58 | CCc1cc(C(=O)Nc2cccc(-c3nnn[nH]3)c2)sc1-c1ccc(Cl)cc1 |  | > 50 | CC50 [3, 5]: > 50 µM; CC10 ([3]; veroe6/tmprss2): > 50 µM; CC50 [4]: 38.6 µM
59 | CNC(=O)[C@H](Nc1cc(CN)cc(C(=O)O)c1)c1cc(Cl)cc(NC(=O)OCc2ccccc2)c1 | > 50 | > 50 | 
60 | O=C(Nc1cc(Cl)cc(C(=O)Nc2ccc3c(c2)CNCC3)c1)OCc1ccccc1 | 2.85 | 3.27 | 
